According to patent publication US20150328193A1, “TREATMENT OF MTOR HYPERACTIVE RELATED DISEASES AND DISORDERS” (THE BRIGHAM AND WOMEN'S HOSPITAL, INC., priority 2012, published 2015):
Counter-ions that a name gives are not always drawn.

Assays:
[1] = system: 621-101 cells (TSC2-null, derived from a LAM patient); experiment: High-throughput screen of known bioactives in 621-101 cells, ATP levels ([…] GLO) as cell viability, with or without rapamycin pretreatment; type: cell-based, human; conditions: for Normalized ATP levels drug alone (A) / Normalized ATP levels rapa + drug (B): 621-101 cells, 48-72 h; for Normalized ATP levels drug alone (A): DMSO pretreatment; for Normalized ATP levels rapa + drug (B): rapamycin (20 nM) pretreatment two hours plus drug; for ATP Fold Change (B):(A): ratio of rapa + drug to drug alone; for Inducing cell death in TSC2-null LAM cells as single agent: used individually in the absence of rapamycin; for Synergy with rapamycin to bring about apoptosis in TSC2-null LAM cells: combination with rapamycin
Protocol: Rapamycin was used at 20 nM and the screen compounds at 20 uM.
Cells are then pretreated with either Rapamycin (20 nM) or DMSO control in duplicate for two hours. Compound libraries are then added at the ICCB and allowed to incubate for 48-72 h. […] Treatment with staurosporine (1-2 uM) represents a positive control for cell death.
The inventors screened the Known Bioactives Collection at the ICCB which consists of approximately 7,000 compounds.

FAK = FAK (Homo sapiens, UniProt Q05397); conditions: cited from earlier work
JAK2 kinase = JAK2 kinase (Homo sapiens, UniProt O60674); conditions: in vitro; cited from earlier work
TrkA = TrkA (Homo sapiens, UniProt P04629); conditions: cited from earlier work
Aurora-A = biological target: T1, Aurora-A (Homo sapiens, UniProt O14965); conditions: cited from earlier work
T1 sequence (O14965 1-403): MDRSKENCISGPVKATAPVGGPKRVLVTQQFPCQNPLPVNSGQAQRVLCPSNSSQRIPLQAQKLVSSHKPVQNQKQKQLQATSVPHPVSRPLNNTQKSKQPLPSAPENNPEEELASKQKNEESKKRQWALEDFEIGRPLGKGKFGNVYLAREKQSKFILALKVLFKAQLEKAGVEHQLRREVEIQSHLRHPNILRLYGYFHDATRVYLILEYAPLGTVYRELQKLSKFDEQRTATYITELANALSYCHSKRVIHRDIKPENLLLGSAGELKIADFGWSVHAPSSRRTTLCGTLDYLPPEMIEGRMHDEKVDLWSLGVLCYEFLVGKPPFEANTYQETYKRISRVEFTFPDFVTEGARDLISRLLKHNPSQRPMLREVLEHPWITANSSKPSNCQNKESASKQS

[2] = system: Tsc2-null mouse embryonic fibroblasts (MEFs); experiment: Chelerythrine chloride treatment of Tsc2-null mouse embryonic fibroblasts; type: cell-based; conditions: 10 uM, 30 hours
621-101 cells = experiment: Follow-up imaging of cell death/proliferation in 621-101 cells; type: cell-based, human
Protocol: 621-101 cells were pretreated for two hours with either DMSO (top two panels) or rapamycin (20 nM) bottom two panels) followed by the addition of fresh DMSO (top left), fresh rapamycin (bottom left), chelerythrine chloride (1 uM, top right), or rapamycin and chelerythrine chloride (bottom right). […] 4× magnification.

protein kinase C (PKC) = conditions: cited from earlier work
[3] = system: wild-type mouse embryonic fibroblasts (MEFs); experiment: Chelerythrine chloride treatment of wild-type mouse embryonic fibroblasts; type: cell-based; conditions: 10 uM, 30 hours
[4] = system: ELT3-V3 (TSC2-deficient) cells; experiment: Paroxetine treatment of ELT3-V3 (TSC2-deficient) versus ELT3-T3 (re-expressing TSC2) cells; type: cell-based, Eker rat; parameters: dose or concentration left out as unconfirmed; conditions: 24 hrs
Protocol: […] TSC2-deficient uterine leiomyoma cells derived from the Eker rat model of TSC, ELT3-V3 (TSC2-deficient) and ELT3-T3 (re-expressing TSC2) were treated with […] of DMSO or Paxil for 24 hrs.

[5] = Rapamycin 20 nM, screen compounds 20 uM

JAK2 kinase, sequence (O60674 whole entry): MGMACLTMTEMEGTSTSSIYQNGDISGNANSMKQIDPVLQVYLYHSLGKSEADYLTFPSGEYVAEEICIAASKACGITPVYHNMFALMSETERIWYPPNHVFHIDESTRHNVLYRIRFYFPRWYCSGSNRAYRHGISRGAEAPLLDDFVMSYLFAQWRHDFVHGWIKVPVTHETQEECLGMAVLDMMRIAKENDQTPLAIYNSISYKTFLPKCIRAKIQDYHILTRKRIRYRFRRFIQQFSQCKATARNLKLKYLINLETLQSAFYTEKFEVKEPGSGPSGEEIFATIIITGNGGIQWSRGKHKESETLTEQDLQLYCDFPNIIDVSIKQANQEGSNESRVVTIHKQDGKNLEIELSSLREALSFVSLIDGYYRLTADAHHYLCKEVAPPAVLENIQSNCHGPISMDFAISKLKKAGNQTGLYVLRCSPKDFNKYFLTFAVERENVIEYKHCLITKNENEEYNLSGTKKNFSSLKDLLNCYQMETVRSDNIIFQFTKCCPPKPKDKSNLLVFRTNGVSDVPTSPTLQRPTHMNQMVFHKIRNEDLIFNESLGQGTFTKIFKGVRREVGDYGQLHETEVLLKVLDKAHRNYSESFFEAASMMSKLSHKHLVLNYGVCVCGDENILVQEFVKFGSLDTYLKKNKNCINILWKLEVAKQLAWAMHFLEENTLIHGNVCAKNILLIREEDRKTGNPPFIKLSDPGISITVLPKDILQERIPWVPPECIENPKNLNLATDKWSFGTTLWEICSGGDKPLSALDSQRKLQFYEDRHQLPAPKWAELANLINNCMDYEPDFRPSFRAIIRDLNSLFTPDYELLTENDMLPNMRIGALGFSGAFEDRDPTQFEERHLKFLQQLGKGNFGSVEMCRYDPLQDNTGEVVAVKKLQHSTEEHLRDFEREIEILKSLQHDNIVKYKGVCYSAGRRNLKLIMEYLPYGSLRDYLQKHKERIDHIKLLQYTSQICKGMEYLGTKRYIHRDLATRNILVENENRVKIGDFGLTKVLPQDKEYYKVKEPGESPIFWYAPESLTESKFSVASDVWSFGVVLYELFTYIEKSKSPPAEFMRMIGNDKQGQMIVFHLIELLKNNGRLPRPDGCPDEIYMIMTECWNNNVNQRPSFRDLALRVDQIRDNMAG
FAK, sequence (Q05397 whole entry, species assumed): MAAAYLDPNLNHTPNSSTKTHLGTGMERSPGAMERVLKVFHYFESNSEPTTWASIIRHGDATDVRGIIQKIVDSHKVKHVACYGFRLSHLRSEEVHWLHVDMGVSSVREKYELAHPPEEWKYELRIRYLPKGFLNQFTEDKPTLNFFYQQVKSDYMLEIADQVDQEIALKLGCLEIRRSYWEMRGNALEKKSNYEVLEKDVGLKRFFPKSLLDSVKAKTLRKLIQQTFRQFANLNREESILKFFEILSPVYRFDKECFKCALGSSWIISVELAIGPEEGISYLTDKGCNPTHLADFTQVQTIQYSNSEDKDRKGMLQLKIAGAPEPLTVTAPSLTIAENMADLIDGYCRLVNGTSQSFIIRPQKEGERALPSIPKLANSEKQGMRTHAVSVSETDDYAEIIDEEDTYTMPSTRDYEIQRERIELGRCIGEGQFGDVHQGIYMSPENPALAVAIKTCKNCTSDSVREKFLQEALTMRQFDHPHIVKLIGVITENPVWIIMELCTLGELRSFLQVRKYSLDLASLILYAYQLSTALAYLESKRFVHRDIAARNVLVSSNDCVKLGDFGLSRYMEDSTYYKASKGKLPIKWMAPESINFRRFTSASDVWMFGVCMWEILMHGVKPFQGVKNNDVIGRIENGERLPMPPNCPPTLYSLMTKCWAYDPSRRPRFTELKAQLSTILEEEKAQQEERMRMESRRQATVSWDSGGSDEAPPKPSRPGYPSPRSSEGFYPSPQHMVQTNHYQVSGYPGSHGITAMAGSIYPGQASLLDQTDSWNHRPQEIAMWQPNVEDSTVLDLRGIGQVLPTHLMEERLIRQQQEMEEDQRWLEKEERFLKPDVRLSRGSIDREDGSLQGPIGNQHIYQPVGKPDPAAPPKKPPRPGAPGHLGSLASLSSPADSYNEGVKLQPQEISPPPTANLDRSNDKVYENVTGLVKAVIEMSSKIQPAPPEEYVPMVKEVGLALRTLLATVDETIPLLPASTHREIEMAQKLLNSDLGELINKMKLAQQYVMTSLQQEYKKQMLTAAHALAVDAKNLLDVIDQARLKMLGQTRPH
TrkA, sequence (P04629 33-796, species assumed): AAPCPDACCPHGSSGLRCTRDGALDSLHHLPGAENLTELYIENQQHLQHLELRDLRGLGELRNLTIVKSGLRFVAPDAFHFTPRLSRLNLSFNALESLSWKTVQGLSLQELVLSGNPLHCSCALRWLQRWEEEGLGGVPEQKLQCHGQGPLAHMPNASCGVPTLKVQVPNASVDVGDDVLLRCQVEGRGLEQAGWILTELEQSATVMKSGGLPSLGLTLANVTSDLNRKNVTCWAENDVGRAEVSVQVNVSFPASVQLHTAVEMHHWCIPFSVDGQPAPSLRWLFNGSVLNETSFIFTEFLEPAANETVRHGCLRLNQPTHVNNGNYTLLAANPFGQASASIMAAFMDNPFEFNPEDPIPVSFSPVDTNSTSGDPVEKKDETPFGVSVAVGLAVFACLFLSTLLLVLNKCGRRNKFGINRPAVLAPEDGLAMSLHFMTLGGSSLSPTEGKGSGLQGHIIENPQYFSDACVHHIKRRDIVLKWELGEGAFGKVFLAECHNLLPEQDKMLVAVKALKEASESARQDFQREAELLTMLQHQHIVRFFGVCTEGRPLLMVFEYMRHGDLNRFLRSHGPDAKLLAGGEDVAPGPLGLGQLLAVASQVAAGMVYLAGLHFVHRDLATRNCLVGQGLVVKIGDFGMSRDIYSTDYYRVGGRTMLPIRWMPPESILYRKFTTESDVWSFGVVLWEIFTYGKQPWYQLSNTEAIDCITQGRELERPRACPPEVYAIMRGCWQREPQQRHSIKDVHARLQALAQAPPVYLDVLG

In the case of `CCC1(c2ccc(N)cc2)CCC(=O)NC1=O` (centres unmarked) [Aminoglutethimide], the “Normalized ATP levels drug alone (A)” value [1] is reported as 0.474, the “Normalized ATP levels rapa + drug (B)” value [1] is reported as 1.264 and the “ATP Fold Change (B):(A)” value [1] is reported as 2.7 (Anticonvulsant). For the same compound, the “Inducing cell death in TSC2-null LAM cells as single agent” value (“Inducing cell death” below) [1] was “surprisingly effective at inducing cell death”.
In the case of `Cc1cc(Nc2nc(N[C@@H](C)c3ccc(F)cc3)c(C#N)cc2F)n[nH]1` [AZ-960], the “Synergize with rapamycin to cause cell death / decrease ATP levels (confirmed hits)” value [1, 5] is listed as “confirmed as hits”, the “Synergy with rapamycin to bring about apoptosis in TSC2-null LAM cells” value (“Synergy with rapamycin” for short) [1] is listed as “worked synergistically with rapamycin” and the IC50 (FAK) is listed as about 100 nM. For the same compound, the Ki (JAK2 kinase) was 0.45 nM, the IC50 (TrkA) was about 100 nM and the IC50 (Aurora-A) was about 100 nM.
For `O=C(Nc1cccc(Nc2ncc(Br)c(NCCc3cnc[nH]3)n2)c1)N1CCCC1` [BX912, N-(3-(4-(2-(1H-imidazol-5-yl)ethylamino)-5-bromopyrimidin-2-ylamino)phenyl)pyrrolidine-1-carboxamide], the “Synergy with rapamycin” value [1] was “worked synergistically with rapamycin”.
With `CNCCC=C1c2ccccc2CCc2ccccc21` [nortriptyline, 3-(10,11-dihydro-5H-dibenzo[a,d]cyclohepten-5-ylidene)-N-methyl-1-propanamine] the “Inducing cell death” value [1] was “surprisingly effective at inducing cell death”.
With `CC(C)NCC(O)COc1ccc(CCOCC2CC2)cc1` (centres unmarked) [Betaxolol HCl] the “Normalized ATP levels drug alone (A)” value [1] was 0.487, the “Normalized ATP levels rapa + drug (B)” value [1] was 1.27 and the “ATP Fold Change (B):(A)” value [1] was 2.6 (β blocker). The “Inducing cell death” value [1] was “surprisingly effective at inducing cell death”.
For `COc1ccc2c(c[n+](C)c3c4cc5c(cc4ccc23)OCO5)c1OC` [chelerythrine chloride], the “Effect on Tsc2-null MEFs” value [2] was “dramatic effect”, the “Selectivity for Tsc2-null versus wild-type MEFs” value [2] was “selective to Tsc2-null cells” and the “Effect on 621-101 cells in combination with rapamycin” value (621-101 cells; 24 h, 1 uM, rapamycin 20 nM pretreatment two hours) was “effect on cells is reduced”. For the same compound, the 621-101 cell proliferation (621-101 cells; 24 h post drug exposure, 1 uM, DMSO pretreatment) was “inhibits 621-101 cell proliferation”, the 621-101 cell proliferation (621-101 cells; 96 h post drug exposure) was “inhibits 621-101 cell proliferation” and the “Effect alone versus in combination with rapamycin (single agent potential)” value [1, 5] was “protected by rapamycin”. For the same compound, the “Inducing cell death” value [1] was “surprisingly effective at inducing cell death”, the IC50 (protein kinase C (PKC)) was 660 nM and the “Effect on wild-type MEFs” value [3] was “minimal effect”.
With `CCC1(c2ccccc2)NC(=O)N(C)C1=O` (centres unmarked) [Mephenytoin] the “Normalized ATP levels drug alone (A)” value [1] was 0.425, the “Normalized ATP levels rapa + drug (B)” value [1] was 1.17 and the “ATP Fold Change (B):(A)” value [1] was 2.8 (Anticonvulsant). The “Inducing cell death” value [1] was “surprisingly effective at inducing cell death”.
For `C[C@H](CCC(=O)O)C[C@H](C)C[C@H](C)C(=O)/C=C(\O)[C@H](C)C[C@H](C)C/C=C/[C@@H](C)[C@@H](O)[C@@H](C)[C@@H](O)C[C@@H]1CC[C@@](C)([C@H]2CC[C@@](C)([C@@H](C)O)O2)O1` [ionomycin], the “Synergy with rapamycin” value [1] was “worked synergistically with rapamycin”.
For `CNCCC(Oc1ccc(C(F)(F)F)cc1)c1ccccc1` (racemic) [fluoxetine, (RS)-N-methyl-3-phenyl-3-[4-(trifluoromethyl)phenoxy]propan-1-amine], the “Inducing cell death” value [1] was “surprisingly effective at inducing cell death”.
For `COC(=O)C1=C(C)NC(C)=C(C(=O)OCCN(C)Cc2ccccc2)C1c1cccc([N+](=O)[O-])c1` (centres unmarked) [nicardipine], the “Synergy with rapamycin” value [1] was “worked synergistically with rapamycin”.
For `OCCN1CCN(CC/C=C2/c3ccccc3Sc3ccc(C(F)(F)F)cc32)CC1` [Flupenthixol 2HCl], the “Normalized ATP levels drug alone (A)” value [1] was 0.273, the “Normalized ATP levels rapa + drug (B)” value [1] was 0.776 and the “ATP Fold Change (B):(A)” value [1] was 2.8 (Anti-psychotic). For the same compound, the “Inducing cell death” value [1] was “surprisingly effective at inducing cell death”.
In the case of `CN(C)CCOc1ccc(-c2nc(-c3ccncc3)c(-c3ccc4c(c3)CC/C4=N\O)[nH]2)cc1` [SB-590885], the “Synergize with rapamycin to cause cell death / decrease ATP levels (confirmed hits)” value [1, 5] is reported as “confirmed as hits” and the “Synergy with rapamycin” value [1] is reported as “worked synergistically with rapamycin”.
In the case of `CO[C@H]1C[C@@H]2CC[C@@H](C)[C@@](O)(O2)C(=O)C(=O)N2CCCC[C@H]2C(=O)O[C@H]([C@H](C)C[C@@H]2CC[C@@H](O)[C@H](OC)C2)CC(=O)[C@H](C)/C=C(\C)[C@@H](O)[C@@H](OC)C(=O)[C@H](C)C[C@H](C)/C=C/C=C/C=C/1C` [rapamycin], the “Cell death in 621-101 cells” value (621-101 cells; FIG. 1) is reported as “does not induce cell death”.
In the case of `OCc1cc(C(O)CNCCCCCCOCCCCc2ccccc2)ccc1O` (centres unmarked) [Salmeterol], the “Normalized ATP levels drug alone (A)” value [1] is reported as 0.184, the “Normalized ATP levels rapa + drug (B)” value [1] is reported as 0.456 and the “ATP Fold Change (B):(A)” value [1] is reported as 2.5 (β blocker). For the same compound, the “Inducing cell death” value [1] was “surprisingly effective at inducing cell death”.
With “(7R)-7-(Acetyloxy)-4-hydroxy-N,N,N-trimethyl-3,5,9-trioxa-4-phosphapentacosan-1-aminium-4-oxide [PAF C16]” the “Synergy with rapamycin” value [1] was “worked synergistically with rapamycin”.
In the case of `Fc1ccc([C@@H]2CCNC[C@H]2COc2ccc3c(c2)OCO3)cc1` [paroxetine, (3S,4R)-3-[(2H-1,3-benzodioxol-5-yloxy)methyl]-4-(4-fluorophenyl)piperidine], the “Inducing cell death” value [1] is reported as “surprisingly effective at inducing cell death”, the “Apoptosis of ELT3-V3 (TSC2-deficient) cells” value [4] is reported as “susceptible to Paxil induced apoptosis” and the “Selectivity for TSC2-deficient ELT3-V3 versus ELT3-T3 cells” value [4] is reported as “selective to Tsc2-null cells”.
With `C[CH2][Hg][S]c1ccccc1C(=O)[O-].[Na+]` [Thimerosal, Ethyl(2-mercaptobenzoato-(2-)-O,S) mercurate(1-) sodium] the “Synergy with rapamycin” value [1] was “worked synergistically with rapamycin”.
In the case of `CO[C@@H](C(=O)N1Cc2[nH]nc(NC(=O)c3ccc(N4CCN(C)CC4)cc3)c2C1)c1ccccc1` [danusertib (PHA-739358)], the “Synergize with rapamycin to cause cell death / decrease ATP levels (confirmed hits)” value [1, 5] is reported as “confirmed as hits” and the “Synergy with rapamycin” value [1] is reported as “worked synergistically with rapamycin”.
For `C/N=c1\nc(-c2ccccc2)n(-c2ccccc2)s1` [SCH-202676 hydrobromide, (N-(2,3-diphenyl-1,2,4-thiadiazol-5-(2H)-ylidene)methanamine) hydrobromide], the “Synergize with rapamycin to cause cell death / decrease ATP levels (confirmed hits)” value [1, 5] was “confirmed as hits” and the “Synergy with rapamycin” value [1] was “worked synergistically with rapamycin”.
In the case of `COc1ccc2c(c1)CC[C@@H]1[C@@H]2CC[C@]2(C)[C@@H](NCCCCCCN3C(=O)CCC3=O)CC[C@@H]12` [U-73343, 1-[6-[((17β)-3-Methoxyestra-1,3,5[10]-trien-17-yl)amino]hexyl]-2,5-pyrrolidinedione], the “Synergy with rapamycin” value [1] is reported as “worked synergistically with rapamycin”.
In the case of `OCCN1CCN(CCCN2c3ccccc3Sc3ccc(C(F)(F)F)cc32)CC1` [Fluphenazine 2HCl], the “Normalized ATP levels drug alone (A)” value [1] is reported as 0.069, the “Normalized ATP levels rapa + drug (B)” value [1] is reported as 0.191 and the “ATP Fold Change (B):(A)” value [1] is reported as 2.8 (Anti-psychotic). For the same compound, the “Inducing cell death” value [1] was “surprisingly effective at inducing cell death”.
For `CN1CCN(CCCN2c3ccccc3Sc3ccc(C(F)(F)F)cc32)CC1` [trifluoperazine, 10-[3-(4-methylpiperazin-l-yl)propyl]-2-(trifluoromethyl)-10H-phenothiazine], the “Inducing cell death” value [1] was “surprisingly effective at inducing cell death”.
With `NC[C@@H]1O[C@H](C23CC4CC(CC(C4)C2)C3)Cc2c1ccc(O)c2O` [A-77636] the “Inducing cell death” value [1] was “surprisingly effective at inducing cell death”.
